Reference: patent US11014934B2, “Antiseptic drug” (AO “TATKHIMFARMPREPARATY”, priority 2017, dated 2021)
Read-outs that look alike come from different tables or passages of the source.

Key:
Experiment in all cases: MIC, serial dilutions in Müller-Hinton broth
Assay type in all cases: cell-based
Moraxella sp. 764 = test system: Moraxella sp. 764
Description: (§1) A comparative assessment of the spectrum of antibacterial action was carried out on archival and clinical strains of gram-positive and gram-negative microorganisms in accordance with the [Opredeleniye chuvstvitel'nosti mikroorganizmov k antibakterial'nym preparatam (Metodicheskiye ukazaniya MUK 4.2.1890-04). Utverzhdeny i vvedeny v deystviye Glavnym gosudarstvennym sanitarnym vrachom Rossiyskoy Federatsii G. G. Onishchenko 04.03.2004 g. Determination of the sensitivity of microorganisms to antibacterial drugs (Guidelines MUK 4.2.1890-04). Approved and put into effect by the Chief State Sanitary Doctor of the Russian Federation G. G. Onishchenko on 4 Mar. 2004].
(§2) The value of the minimum inhibitory concentration (MIC) was determined by the method of serial dilutions on Müller-Hinton broth using 96-well sterile plates. Two-fold dilutions of the test substances in a nutrient medium were prepared. The final concentrations were 1-128 ug/ml. The growth of cultures was assessed visually, comparing the growth of microorganisms in the presence of test compounds with the growth of culture without them. […] The first lowest concentration of the studied substance (from a series of consecutive dilutions), where bacterial growth is not visually determined, is considered to be the minimum inhibitory concentration (MIC). MIC was determined by the method of serial dilutions in broth with increment=2, so the differences of neighboring dilutions are not considered to be significant. In each experience there is a positive (broth with growing culture) and a negative (broth without growing culture) control.
(§3) To determine the MIC, 10 μl of culture medium was taken from those wells in which growth was not observed, and inoculation was performed on a dense Müller-Hinton broth. For the preparation of the inoculum, a pure, daily culture of gram-positive and gram-negative microorganisms grown on a dense nutrient medium was used. Nutrient medium is Müller-Hinton broth, which was prepared from dry media (Müller-Hinton broth, Acumedia, Baltimore), cultivation was carried out on agarized Müller-Hinton broth, including an additional 2% agar. The media were autoclaved at 121° C. for 15 minutes. In a sterile isotonic solution of sodium chloride, a suspension of microorganisms was prepared, adjusting the inoculum density to 0.5 according to the McFarland standard (1.5·10^8 CFU/ml). Then, the resulting inoculum was diluted to a concentration of 10^7 CFU/ml with Müller-Hinton broth. The inoculum was used within 15 minutes after preparation; the purity of the bacterial strains was monitored before each experiment.
(§4) 100 μl of Müller-Hinton broth was added to the wells of each plate; The tested substance was introduced into the first well at a concentration of 128 μg/ml in a volume of 100 μl and its concentration was adjusted to 0.5 μg/ml by consecutive two-fold dilution. Then, the prepared inoculum (100 μI) was added to each well, thereby diluting twice the concentration of the studied compounds. […] In addition, the purity of nutrient media and solvents was monitored. The plates were incubated in a thermostat at 37° C. for 24 hours. The growth of cultures was assessed visually, comparing the growth of microorganisms in the presence of test compounds with the growth of culture without them.
(§5) For the MIC was taken the minimum concentration of the studied compounds, providing complete suppression of the visible growth of the studied strains of microorganisms. The maximum value obtained in three independent experiments was taken as the MIC of the compound.

S. aureus 1168 MRSA = test system: S. aureus 1168 MRSA
Description: as §1, §2, §3, §4, §5

Kl. pneumoniae 1435 PR = test system: Kl. pneumoniae 1435 PR
Description: as §1, §2, §3, §4, §5

E. faecalis 3051 = test system: E. faecalis 3051
Description: as §1, §2, §3, §4, §5

S. aureus 1131 MRSA = test system: S. aureus 1131 MRSA
Description: as §1, §2, §3, §4, §5

E. faecium 32 = test system: E. faecium 32
Description: as §1, §2, §3, §4, §5

E. faecium 27 = test system: E. faecium 27
Description: as §1, §2, §3, §4, §5

E. coli 13 = test system: E. coli 13
Description: as §1, §2, §3, §4, §5

E. coli MG 1655 = test system: E. coli MG 1655
Description: as §1, §2, §3, §4, §5

E. coli 1440 = test system: E. coli 1440
Description: as §1, §2, §3, §4, §5

E. faecium 4402 = test system: E. faecium 4402
Description: as §1, §2, §3, §4, §5

S. epidermidis 15990 = test system: S. epidermidis 15990
Description: as §1, §2, §3, §4, §5

E. faecium 4403 = test system: E. faecium 4403
Description: as §1, §2, §3, §4, §5

E. faecium 31 = test system: E. faecium 31
Description: as §1, §2, §3, §4, §5

Ps. aeruginosa 1913 PR = test system: Ps. aeruginosa 1913 PR
Description: as §1, §2, §3, §4, §5

A. baumannii 1440 = test system: A. baumannii 1440
Description: as §1, §2, §3, §4, §5

Ps. aeruginosa 2869 = test system: Ps. aeruginosa 2869
Description: as §1, §2, §3, §4, §5

S. aureus ATCC 29213 = test system: S. aureus ATCC 29213
Description: as §1, §2, §3, §4, §5

Moraxella sp. 765 = test system: Moraxella sp. 765
Description: as §1, §2, §3, §4, §5

S. aureus 18 = test system: S. aureus 18
Description: as §1, §2, §3, §4, §5

Ps. aeruginosa 1959 = test system: Ps. aeruginosa 1959
Description: as §1, §2, §3, §4, §5

E. faecium 3030 = test system: E. faecium 3030
Description: as §1, §2, §3, §4, §5

## CCCCCCCCCCCCCC(=O)NCCC[N+](C)(C)Cc1ccccc1.O.[Cl-] [Miramistin, benzyldimethyl [3-(myristoylamino)propyl]-ammonium chloride monohydrate]
Moraxella sp. 764; Moraxella, SP.764
  MIC: 64 µg/mL
S. aureus 1168 MRSA; Staphylococcus aureus, MRSA
  MIC: 8 µg/mL
Kl. pneumoniae 1435 PR; Klebsiella pneumoniae, 1435PR
  MIC: 64 µg/mL
E. faecalis 3051; Enterococcus faecalis, 3051
  MIC: 2 µg/mL
S. aureus 1131 MRSA; Staphylococcus aureus, MRSA
  MIC: 4 µg/mL
E. faecium 32; Enterococcus faecium, 32
  MIC: < 0.5 µg/mL
E. faecium 27; Enterococcus faecium, 27
  MIC: 32 µg/mL
E. coli 13; Escherichia coli, 13
  MIC: 32 µg/mL
E. coli MG 1655; Escherichia coli, MG1655
  MIC: 8 µg/mL
E. coli 1440; Escherichia coli, 1440
  MIC: 64 µg/mL
E. faecium 4402; Enterococcus faecium, 4402
  MIC: 4 µg/mL
S. epidermidis 15990; Staphylococcus epidermidis, 15990
  MIC: 8 µg/mL
E. faecium 4403; Enterococcus faecium, 4403
  MIC: 64 µg/mL
E. faecium 31; Enterococcus faecium, 31
  MIC: 4 µg/mL
Ps. aeruginosa 1913 PR; Pseudomonas aeruginosa, 1913PR
  MIC: > 64 µg/mL
A. baumannii 1440; Acinetobacter baumannii, 1440
  MIC: 64 µg/mL
Ps. aeruginosa 2869; Pseudomonas aeruginosa, 2869
  MIC: 64 µg/mL
S. aureus ATCC 29213; Staphylococcus aureus, ATCC29213
  MIC: 16 µg/mL
Moraxella sp. 765; Moraxella, SP.765
  MIC: 64 µg/mL
S. aureus 18; Staphylococcus aureus, 18
  MIC: 16 µg/mL
Ps. aeruginosa 1959; Pseudomonas aeruginosa, 1959
  MIC: 64 µg/mL
E. faecium 3030; Enterococcus faecium, 3030
  MIC: 0.5 µg/mL

## alkyldimethyl(phenylmethyl) ammonium chloride [Benzalconium chloride]
Moraxella sp. 764; Moraxella sp. 764, inoculum 10^7 CFU/ml
  MIC: 4 µg/mL
S. aureus 1168 MRSA; S. aureus 1168 MRSA, inoculum 10^7 CFU/ml
  MIC: 2 µg/mL
Kl. pneumoniae 1435 PR; Kl. pneumoniae 1435 PR, inoculum 10^7 CFU/ml
  MIC: 32 µg/mL
E. faecalis 3051; E. faecalis 3051, inoculum 10^7 CFU/ml
  MIC: 2 µg/mL
S. aureus 1131 MRSA; S. aureus 1131 MRSA, inoculum 10^7 CFU/ml
  MIC: 2 µg/mL
E. faecium 32; E. faecium 32, inoculum 10^7 CFU/ml
  MIC: <0.5 µg/mL
E. faecium 27; E. faecium 27, inoculum 10^7 CFU/ml
  MIC: 0.5 µg/mL
E. coli 13; E. coli 13, inoculum 10^7 CFU/ml
  MIC: 2 µg/mL
E. coli MG 1655; E. coli MG 1655, inoculum 10^7 CFU/ml
  MIC: 2 µg/mL
E. coli 1440; E. coli 1440, inoculum 10^7 CFU/ml
  MIC: 32 µg/mL
E. faecium 4402; E. faecium 4402, inoculum 10^7 CFU/ml
  MIC: 1 µg/mL
S. epidermidis 15990; S. epidermidis 15990, inoculum 10^7 CFU/ml
  MIC: 1 µg/mL
E. faecium 4403; E. faecium 4403, inoculum 10^7 CFU/ml
  MIC: 2 µg/mL
E. faecium 31; E. faecium 31, inoculum 10^7 CFU/ml
  MIC: <0.5 µg/mL
Ps. aeruginosa 1913 PR; Ps. aeruginosa 1913 PR, inoculum 10^7 CFU/ml
  MIC: >64 µg/mL
A. baumannii 1440; A. baumannii 1440, inoculum 10^7 CFU/ml
  MIC: 32 µg/mL
Ps. aeruginosa 2869; Ps. aeruginosa 2869, inoculum 10^7 CFU/ml
  MIC: 64 µg/mL
S. aureus ATCC 29213; S. aureus ATCC 29213, inoculum 10^7 CFU/ml
  MIC: 2 µg/mL
Moraxella sp. 765; Moraxella sp. 765, inoculum 10^7 CFU/ml
  MIC: 32 µg/mL
S. aureus 18; S. aureus 18, inoculum 10^7 CFU/ml
  MIC: <0.5 µg/mL
Ps. aeruginosa 1959; Ps. aeruginosa 1959, inoculum 10^7 CFU/ml
  MIC: >64 µg/mL
E. faecium 3030; E. faecium 3030, inoculum 10^7 CFU/ml
  MIC: 0.5 µg/mL

## CCCCCCCCCCCC[N+](C)(C)Cc1cnc(C[N+](C)(C)CCCCCCCCCCCC)c2c1COC(CC)O2 (stereo not drawn) [Compound I, 5,8-(Bis(methylene (N, N-dimethyl-N-dodecylammonium))-2-ethyl-4H-[1,3]dioxino [4,5-c]pyridiniumdichloride]
Moraxella sp. 764; Moraxella sp. 764, inoculum 10^7 CFU/ml, read-out: MIC
  MIC: 8 µg/mL
S. aureus 1168 MRSA; Staphylococcus aureus, S. aureus 1168 MRSA, inoculum 10^7 CFU/ml, read-out: MIC
  MIC: 1 µg/mL
Kl. pneumoniae 1435 PR; Klebsiella pneumoniae, Kl. pneumoniae 1435 PR, inoculum 10^7 CFU/ml, read-out: MIC
  MIC: 32 µg/mL
E. faecalis 3051; Enterococcus faecalis, E. faecalis 3051, inoculum 10^7 CFU/ml, read-out: MIC
  MIC: 4 µg/mL
S. aureus 1131 MRSA; Staphylococcus aureus, S. aureus 1131 MRSA, inoculum 10^7 CFU/ml, read-out: MIC
  MIC: 2 µg/mL
E. faecium 32; Enterococcus faecium, E. faecium 32, inoculum 10^7 CFU/ml, read-out: MIC
  MIC: 0.03 µg/mL
E. faecium 27; Enterococcus faecium, E. faecium 27, inoculum 10^7 CFU/ml, read-out: MIC
  MIC: 0.03 µg/mL
E. coli 13; Escherichia coli, E. coli 13, inoculum 10^7 CFU/ml, read-out: MIC
  MIC: 8 µg/mL
E. coli MG 1655; Escherichia coli, MG1655, E. coli MG 1655, inoculum 10^7 CFU/ml, read-out: MIC
  MIC: 2 µg/mL
E. coli 1440; Escherichia coli, E. coli 1440, inoculum 10^7 CFU/ml, read-out: MIC
  MIC: 32 µg/mL
E. faecium 4402; Enterococcus faecium, E. faecium 4402, inoculum 10^7 CFU/ml, read-out: MIC
  MIC: 0.06 µg/mL
S. epidermidis 15990; Staphylococcus epidermidis, S. epidermidis 15990, inoculum 10^7 CFU/ml, read-out: MIC
  MIC: 4 µg/mL
E. faecium 4403; Enterococcus faecium, E. faecium 4403, inoculum 10^7 CFU/ml, read-out: MIC
  MIC: 0.03 µg/mL
E. faecium 31; Enterococcus faecium, E. faecium 31, inoculum 10^7 CFU/ml, read-out: MIC
  MIC: 0.03 µg/mL
Ps. aeruginosa 1913 PR; Pseudomonas aeruginosa, Ps. aeruginosa 1913 PR, inoculum 10^7 CFU/ml, read-out: MIC
  MIC: 64 µg/mL
A. baumannii 1440; Acinetobacter baumannii, A. baumannii 1440, inoculum 10^7 CFU/ml, read-out: MIC
  MIC: 8 µg/mL
Ps. aeruginosa 2869; Pseudomonas aeruginosa, Ps. aeruginosa 2869, inoculum 10^7 CFU/ml, read-out: MIC
  MIC: 32 µg/mL
S. aureus ATCC 29213; Staphylococcus aureus, ATCC29213, S. aureus ATCC 29213, inoculum 10^7 CFU/ml, read-out: MIC
  MIC: 4 µg/mL
Moraxella sp. 765; Moraxella sp. 765, inoculum 10^7 CFU/ml, read-out: MIC
  MIC: 4 µg/mL
S. aureus 18; Staphylococcus aureus, S. aureus 18, inoculum 10^7 CFU/ml, read-out: MIC
  MIC: 4 µg/mL
Ps. aeruginosa 1959; Pseudomonas aeruginosa, Ps. aeruginosa 1959, inoculum 10^7 CFU/ml, read-out: MIC
  MIC: 32 µg/mL
E. faecium 3030; Enterococcus faecium, E. faecium 3030, inoculum 10^7 CFU/ml, read-out: MIC
  MIC: 1 µg/mL
